In PubChem BioAssay AID248 (DTP/NCI, 2004):
Values joined by “and” are separate entries in the source; they are usually repeats but may differ in a detail not shown here. Equal values may be shown once. Toxic doses and inconclusive results are not listed. Rule as the data show it: active = T/C of 150% or more; inactive = T/C below 125%.

System: L1210 leukemia ip in BDF1 mice, survival T/C
Assay: NCI In Vivo Anticancer Drug Screen. Data for tumor model L1210 Leukemia (intraperitoneal) in B6D2F1 (BDF1) mice
Details: endpoint: mean survival time, higher = longer survival
Summary of the method: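 Tumor cells were implanted, animals were treated, and survival was followed. The result divides the treated measurement by the vehicle-control measurement.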

[1] = dose: 100.0 mg/kg/injection, schedule: Q04DX003 (ip), vehicle: saline
[2] = dose: 200.0 mg/kg/injection, schedule: Q04DX003 (ip), vehicle: saline
[3] = dose: 400.0 mg/kg/injection, schedule: Q04DX003 (ip), vehicle: saline

Measured: T/C

CC(=O)[C@H]1CC[C@H]2[C@@H]3C[C@H](C)C4=CC(=O)CC[C@]4(C)[C@H]3C(=O)C[C@]12C
inactive: dose: 20.0 mg/kg/injection, schedule: Q01DX009 (ip), vehicle: carboxymethylcellulose (CMC) 93 % of control | dose: 25.0 mg/kg/injection, schedule: Q01DX015 (sc), vehicle: steriod suspending solution 104 % of control | dose: 32.0 mg/kg/injection, schedule: Q03HX008 (ip), vehicle: Klucel (hydroxypropylcellulose) (HPC) 93 % of control | dose: 32.0 mg/kg/injection, schedule: Q03HX016 (ip), vehicle: Klucel (hydroxypropylcellulose) (HPC) 92 % of control | dose: 32.0 mg/kg/injection, schedule: Q03HX024 (ip), vehicle: Klucel (hydroxypropylcellulose) (HPC) 97 % of control | dose: 40.0 mg/kg/injection, schedule: Q01DX009 (ip), vehicle: carboxymethylcellulose (CMC) 96 % of control | dose: 50.0 mg/kg/injection, schedule: Q01DX015 (sc), vehicle: steriod suspending solution 96 % of control | dose: 64.0 mg/kg/injection, schedule: Q03HX008 (ip), vehicle: Klucel (hydroxypropylcellulose) (HPC) 92 % of control | dose: 64.0 mg/kg/injection, schedule: Q03HX016 (ip), vehicle: Klucel (hydroxypropylcellulose) (HPC) 94 % of control | dose: 64.0 mg/kg/injection, schedule: Q03HX024 (ip), vehicle: Klucel (hydroxypropylcellulose) (HPC) 93 % of control | dose: 67.0 mg/kg/injection, schedule: Q01DX Z (sc), vehicle: steriod suspending solution 103 % of control | dose: 80.0 mg/kg/injection, schedule: Q01DX Z (sc), vehicle: steriod suspending solution 106 % of control | dose: 100.0 mg/kg/injection, schedule: Q01DX015 (sc), vehicle: steriod suspending solution 98 % of control | dose: 100.0 mg/kg/injection, schedule: Q01DX Z (sc), vehicle: steriod suspending solution 109 % of control | dose: 120.0 mg/kg/injection, schedule: Q01DX Z (sc), vehicle: steriod suspending solution 101 % of control | dose: 123.0 mg/kg/injection, schedule: Q01DX009 (ip), vehicle: Klucel (hydroxypropylcellulose) (HPC) 100 % of control | dose: 123.0 mg/kg/injection, schedule: Q03HX008 (ip), vehicle: Klucel (hydroxypropylcellulose) (HPC) 95 % of control | dose: 123.0 mg/kg/injection, schedule: Q03HX016 (ip), vehicle: Klucel (hydroxypropylcellulose) (HPC) 93 % of control | dose: 123.0 mg/kg/injection, schedule: Q03HX024 (ip), vehicle: Klucel (hydroxypropylcellulose) (HPC) 98 % of control | dose: 150.0 mg/kg/injection, schedule: Q01DX Z (sc), vehicle: steriod suspending solution 106 % of control | dose: 160.0 mg/kg/injection, schedule: Q01DX009 (ip), vehicle: carboxymethylcellulose (CMC) 93 % of control | dose: 180.0 mg/kg/injection, schedule: Q01DX Z (sc), vehicle: steriod suspending solution 97 % of control | dose: 200.0 mg/kg/injection, schedule: Q01DX015 (sc), vehicle: steriod suspending solution 102 % of control and 104 % of control | dose: 220.0 mg/kg/injection, schedule: Q01DX Z (sc), vehicle: steriod suspending solution 97 % of control | dose: 255.0 mg/kg/injection, schedule: Q01DX001 (ip), vehicle: Klucel (hydroxypropylcellulose) (HPC) 96 % of control | dose: 255.0 mg/kg/injection, schedule: Q01DX009 (ip), vehicle: Klucel (hydroxypropylcellulose) (HPC) 103 % of control | dose: 255.0 mg/kg/injection, schedule: Q04DX003 (ip), vehicle: Klucel (hydroxypropylcellulose) (HPC) 97 % of control | dose: 255.0 mg/kg/injection, schedule: Q08DX002 (ip), vehicle: Klucel (hydroxypropylcellulose) (HPC) 104 % of control | dose: 270.0 mg/kg/injection, schedule: Q01DX Z (sc), vehicle: steriod suspending solution 89 % of control | dose: 320.0 mg/kg/injection, schedule: Q01DX009 (ip), vehicle: carboxymethylcellulose (CMC) 87 % of control | dose: 330.0 mg/kg/injection, schedule: Q01DX Z (sc), vehicle: steriod suspending solution 100 % of control | dose: 400.0 mg/kg/injection, schedule: Q01DX015 (sc), vehicle: steriod suspending solution 102 % of control | dose: 495.0 mg/kg/injection, schedule: Q01DX Z (sc), vehicle: steriod suspending solution 94 % of control | dose: 512.0 mg/kg/injection, schedule: Q08DX002 (ip), vehicle: Klucel (hydroxypropylcellulose) (HPC) 103 % of control | dose: 640.0 mg/kg/injection, schedule: Q01DX009 (ip), vehicle: carboxymethylcellulose (CMC) 92 % of control

OCc1ccc(CO)cc1
inactive: dose: 100.0 mg/kg/injection, schedule: Q01DX009 (ip), vehicle: saline sonified 100 % of control | dose: 200.0 mg/kg/injection, schedule: Q01DX009 (ip), vehicle: saline sonified 94 % of control | dose: 400.0 mg/kg/injection, schedule: Q01DX009 (ip), vehicle: saline sonified 103 % of control

CNc1ccccc1C=O
inactive: dose: 100.0 mg/kg/injection, schedule: Q01DX001 (ip), vehicle: saline 94 % of control | dose: 200.0 mg/kg/injection, schedule: Q01DX001 (ip), vehicle: saline 97 % of control | dose: 400.0 mg/kg/injection, schedule: Q01DX001 (ip), vehicle: saline 100 % of control

CN1CC(C(=O)NC(C)(C)C)CC(c2ccccc2)C1 (configuration not stated)
inactive: dose: 6.25 mg/kg/injection, schedule: Q01DX009 (ip), vehicle: saline 91 % of control | dose: 12.5 mg/kg/injection, schedule: Q01DX009 (ip), vehicle: saline 86 % of control | dose: 25.0 mg/kg/injection, schedule: Q01DX009 (ip), vehicle: saline 86 % of control

CCCCN(CCC#N)CCCC
inactive: dose: 25.0 mg/kg/injection, schedule: Q04DX003 (ip), vehicle: saline with Tween-80 111 % of control | dose: 29.5 mg/kg/injection, schedule: Q01DX009 (ip), vehicle: saline with Tween-80 107 % of control | dose: 50.0 mg/kg/injection, schedule: Q04DX003 (ip), vehicle: saline with Tween-80 105 % of control | dose: 59.0 mg/kg/injection, schedule: Q01DX009 (ip), vehicle: saline with Tween-80 107 % of control | dose: 100.0 mg/kg/injection, schedule: Q04DX003 (ip), vehicle: saline with Tween-80 97 % of control | dose: 118.0 mg/kg/injection, schedule: Q01DX009 (ip), vehicle: saline with Tween-80 108 % of control

O=C(c1ccccc1)C(Br)S(=O)(=O)C(Br)C(=O)c1ccccc1 (configuration not stated)
inactive: [1] 107 % of control | [2] 107 % of control | [3] 109 % of control

O=[N+]([O-])c1ccc(Cl)c(OCCBr)c1
inactive: dose: 100.0 mg/kg/injection, schedule: Q01DX009 (ip), vehicle: gum acacia 95 % of control | dose: 200.0 mg/kg/injection, schedule: Q01DX009 (ip), vehicle: gum acacia 94 % of control | dose: 400.0 mg/kg/injection, schedule: Q01DX009 (ip), vehicle: gum acacia 89 % of control

Cn1cnc2cc(N=Cc3ccc(N(CCCl)CCCl)cc3Cl)ccc21
inactive: dose: 100.0 mg/kg/injection, schedule: Q04DX002 (ip), vehicle: Klucel (hydroxypropylcellulose) (HPC) 108 % of control | dose: 200.0 mg/kg/injection, schedule: Q04DX002 (ip), vehicle: Klucel (hydroxypropylcellulose) (HPC) 101 % of control | dose: 400.0 mg/kg/injection, schedule: Q04DX002 (ip), vehicle: Klucel (hydroxypropylcellulose) (HPC) 101 % of control

O=C(OCc1ccccc1CN1CCCC1)c1cccc(Cl)c1
inactive: dose: 100.0 mg/kg/injection, schedule: Q01DX001 (ip), vehicle: Klucel (hydroxypropylcellulose) (HPC) 102 % of control | dose: 200.0 mg/kg/injection, schedule: Q01DX001 (ip), vehicle: Klucel (hydroxypropylcellulose) (HPC) 117 % of control

CCCCOCCOc1ccc(C(=O)OC)cc1
inactive: dose: 100.0 mg/kg/injection, schedule: Q04DX003 (ip), vehicle: saline sonified 101 % of control | dose: 200.0 mg/kg/injection, schedule: Q04DX003 (ip), vehicle: saline sonified 111 % of control | dose: 400.0 mg/kg/injection, schedule: Q04DX003 (ip), vehicle: saline sonified 101 % of control

CCN1c2c(nc(N)[nH]c2=O)NCC1CNc1ccc(C(=O)NC(CCC(=O)O)C(=O)O)cc1 (configuration not stated)
inactive: dose: 100.0 mg/kg/injection, schedule: Q01DX009 (ip), vehicle: saline 103 % of control | [1] 108 % of control | dose: 200.0 mg/kg/injection, schedule: Q01DX009 (ip), vehicle: saline 115 % of control | [2] 104 % of control | dose: 400.0 mg/kg/injection, schedule: Q01DX009 (ip), vehicle: saline 94 % of control | [3] 103 % of control

CCCCCCCCN(C)/N=N/c1nc[nH]c1C(=O)OCC
inactive: dose: 50.0 mg/kg/injection, schedule: Q01DX001 (ip), vehicle: other 94 % of control | dose: 100.0 mg/kg/injection, schedule: Q01DX001 (ip), vehicle: other 105 % of control | dose: 200.0 mg/kg/injection, schedule: Q01DX001 (ip), vehicle: other 113 % of control | dose: 400.0 mg/kg/injection, schedule: Q01DX001 (ip), vehicle: other 105 % of control

COC(=O)C(CSc1ccccc1)NC(=O)c1ccccc1 (configuration not stated)
inactive: dose: 100.0 mg/kg/injection, schedule: Q04DX003 (ip), vehicle: Klucel (hydroxypropylcellulose) (HPC) 101 % of control | dose: 200.0 mg/kg/injection, schedule: Q04DX003 (ip), vehicle: Klucel (hydroxypropylcellulose) (HPC) 114 % of control | dose: 400.0 mg/kg/injection, schedule: Q04DX003 (ip), vehicle: Klucel (hydroxypropylcellulose) (HPC) 96 % of control
